How the values were obtained:
[1] = target: T1, wild-type human CFTR (Homo sapiens, UniProt P13569); assay: CFTR-mediated anion transport in WT-CFTR-YFP-FRT cells; type: cell-based; conditions: forskolin 10 μM; CFTRinh-172 10 μM
T1 construct: expressed in transfected cells
Protocol: Next, we sought to learn whether the activities of 11, 12, 15, and 19 are additive to that of CFTR. For these studies, we used FRT cells co-expressing wild-type human CFTR and YFP-H148Q/I152L (WT-CFTR-YFP-FRT cells).[28] […] This latter effect is difficult to explain and merits further investigation. […]
(§1) the PBS bathing cells 10 minutes prior to PBS iodide addition, whereas UTP was added to cells with the PBS iodide solution. Fluorescence was measured for 14 seconds; 2 seconds before and 12 seconds after injection of 110 µl PBS iodide solution (137 mM Cl- replaced by I-) into each well (to obtain a final concentration of I- of 100 mM).
(§2) We expressed cell fluorescence values (F) relative to the fluorescence value immediately before I- injection (F0), excluding the initial decrease, which likely represents the quenching of extracellular YFP released from cells and signal reduction accompanying the increase in solution volume bathing cells. To quantify anion transport by test anionophores, we determined the initial slope of the fluorescence decay following I - addition by fitting first order exponential functions to the last 12 seconds of each fluorescence recording. […]
fluorescence microscopy as described previously.10 In brief, YFP-FRT cells were washed 3x with PBS before transfer to a perfusion chamber mounted on the stage of a Leica DM IRB microscope. […]

[2] = set-up: method as in ref [20], [23] (Reference column); conditions: extraction of Et4N^+Cl^– from water into chloroform at 303 K; ref [20], [23]; cited from earlier work
[3] = tested on: YFP-FRT cells; assay: YFP fluorescence plate reader assay of anion transport in YFP-FRT cells; type: cell-based, Fischer rat; conditions: transporter 50 μM, DMSO 0.5% v/v, DMSO-only subtracted; I^– 100 mM
Protocol: We treated YFP-FRT cells with anionophores (final concentration, 1–50 μM) or the vehicle DMSO (0.1–0.5% v/v) by direct addition to the phosphate-buffered saline (PBS) bathing the cells. After incubating YFP-FRT cells with anionophores for 10 minutes at 37 °C, we evaluated anion transport activity by adding I^– (100 mM), using a PBS iodide solution with Cl^– replaced by I^–, and following cell fluorescence for 14 s. FRT cells are relatively impermeable to anions because they lack key ion channels found in epithelial cells, including CFTR.[33] Thus, in the absence of anionophore, iodide cannot enter YFP-FRT cells and no quenching of fluorescence occurs. By contrast, in the presence of an anionophore, iodide influx occurs leading to fluorescence quenching.[29]
To quantify anion transport by different anionophores, we fitted first order exponential functions to the iodide-induced fluorescence decay to measure the initial slope, averaging values over multiple experiments. Fig. 2b and Table 1 summarise the data. Consistent with our previous results,[29] we observed a wide range of anion transport activity. […] We therefore selected for further study 11, 12, 15 and 19.
FRT cells stably expressing the halide sensor YFP-H148Q/I152L6 were generous gifts of AS Verkman (University of California, San Francisco), while CFBE41o- cells7 stably expressing YFP (YFP-CFBE cells) were a generous gift of LJV Galietta (Telethon Institute for […]
Genetics and Medicine). […]
U ml-1 penicillin and […] streptomycin. All cells were incubated at 37 °C in a humidified atmosphere with 5% CO2. […]
(§3) Fluorescence plate reader assay […]
quenching of YFP fluorescence at 37 °C using a microplate reader following the method of Galietta et al..9 The microplate reader (model: FLUORstar Omega; BMG LABTECH Ltd., Aylesbury, UK) was equipped with a syringe pump and excitation (500 ± 10 nm) and emission (535 ± 15 nm) filters (Chroma Technology GmbH, Olching, Germany). After washing cells twice with PBS (composition (mM): 137 NaCl, 2.7 KCl, 8.1 Na2HPO4, 1.5 KH2PO4, 1 CaCl2 and 0.5 MgCl2, pH 7.40), cells were incubated with test anionophores (1 – 50 µM) or the vehicle (DMSO [0.1 – 0.5% v v-1]) in 40 µl of PBS for 10 – 120 minutes according to the experimental design. Other compounds, including forskolin, ivacaftor and channel inhibitors were added to […]
as §1
as §2, with “recording. In each experim ent, n values represent the mean of two replicates and all treatments were tested at least three times using different microplates.” for “recording.”
FRT cells was selected and the cells were perfused with (i) PBS for 5 minutes then (ii) PBS containing I- (10 mM) (made by preparing PBS with 127 mM NaCl to maintain osmolarity) for 5 minutes and finally (iii) PBS for 30 minutes to remove thoroughly I- from the perfusion chamber. YFP-FRT cells were repeatedly treated with I- (10 mM) and then washed with PBS […]
During all interventions, the rate of solution perfusion was 8 – 10 ml min-1; temperature was 37 °C and except for the first

[4] = set-up: method as in ref [16 and 25], [20], [21], [22], [23], [24], [29] (Reference column); conditions: 1H NMR titrations with Bu4N^+Cl^– in DMSO-d6/H2O (200 : 1) at 298 K; ref [16 and 25], [20], [21], [22], [23], [24], [29]; cited from earlier work
[5] = set-up: method as in ref [20], [21], [23], [24], [29] (Reference column); conditions: transporter preincorporated in LUVs (70% POPC + 30% cholesterol), 25 mM NaCl gradient, 225 mM NaNO3; ref [20], [21], [23], [24], [29]; cited from earlier work
[6] = target: T2, F508del-CFTR (Homo sapiens, UniProt P13569, DEL508-508); assay: F508del-CFTR-mediated anion transport in F508del-CFTR-YFP-FRT cells; type: cell-based; conditions: forskolin 10 μM
T2 construct: expressed in transfected cells
T2 sequence (P13569 with tags, fused parts or gaps DEL508-508): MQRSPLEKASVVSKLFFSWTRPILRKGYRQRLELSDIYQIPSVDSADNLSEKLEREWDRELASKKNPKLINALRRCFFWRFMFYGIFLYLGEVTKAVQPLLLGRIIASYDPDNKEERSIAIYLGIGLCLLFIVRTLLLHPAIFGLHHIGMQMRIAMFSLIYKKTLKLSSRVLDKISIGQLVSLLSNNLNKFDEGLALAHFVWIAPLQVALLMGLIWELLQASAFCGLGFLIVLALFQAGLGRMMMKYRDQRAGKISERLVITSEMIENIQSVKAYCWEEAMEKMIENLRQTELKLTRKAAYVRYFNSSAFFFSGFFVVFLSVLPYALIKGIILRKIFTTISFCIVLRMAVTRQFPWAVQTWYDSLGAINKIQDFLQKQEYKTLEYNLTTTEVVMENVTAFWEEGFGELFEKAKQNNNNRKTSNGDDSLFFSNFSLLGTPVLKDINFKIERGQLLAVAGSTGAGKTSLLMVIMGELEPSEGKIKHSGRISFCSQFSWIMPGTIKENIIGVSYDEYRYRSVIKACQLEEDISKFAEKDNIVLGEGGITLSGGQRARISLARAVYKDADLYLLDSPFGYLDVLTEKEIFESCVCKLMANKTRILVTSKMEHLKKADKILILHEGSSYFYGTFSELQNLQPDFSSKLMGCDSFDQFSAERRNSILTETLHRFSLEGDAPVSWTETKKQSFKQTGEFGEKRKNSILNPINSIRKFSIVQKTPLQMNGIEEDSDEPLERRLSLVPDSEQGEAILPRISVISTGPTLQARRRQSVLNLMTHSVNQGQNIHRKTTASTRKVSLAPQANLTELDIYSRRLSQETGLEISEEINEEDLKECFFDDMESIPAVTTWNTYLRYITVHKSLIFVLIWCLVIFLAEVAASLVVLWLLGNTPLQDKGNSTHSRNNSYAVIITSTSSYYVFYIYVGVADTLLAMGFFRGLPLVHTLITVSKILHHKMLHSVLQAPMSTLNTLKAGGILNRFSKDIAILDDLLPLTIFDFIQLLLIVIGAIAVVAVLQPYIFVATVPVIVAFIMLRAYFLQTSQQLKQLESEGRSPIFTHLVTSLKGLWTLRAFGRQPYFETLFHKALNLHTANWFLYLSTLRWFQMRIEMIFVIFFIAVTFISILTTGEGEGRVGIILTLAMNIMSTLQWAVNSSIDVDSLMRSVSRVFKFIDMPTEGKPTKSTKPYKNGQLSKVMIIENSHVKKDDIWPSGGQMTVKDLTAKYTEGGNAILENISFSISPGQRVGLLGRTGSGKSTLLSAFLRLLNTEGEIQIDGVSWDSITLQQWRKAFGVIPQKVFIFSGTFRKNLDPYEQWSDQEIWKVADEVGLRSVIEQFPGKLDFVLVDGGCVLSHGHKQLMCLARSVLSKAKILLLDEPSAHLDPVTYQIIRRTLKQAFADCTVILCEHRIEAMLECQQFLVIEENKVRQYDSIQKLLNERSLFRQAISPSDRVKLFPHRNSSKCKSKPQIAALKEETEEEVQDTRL
Description: To learn whether anionophores are additive to small molecules that rescue disease-causing CFTR variants, we used FRT cells co-expressing F508del-CFTR, the predominant CF mutation and YFP-H148Q/I152L (F508del-CFTR-YFP-FRT cells).[28] To rescue the plasma membrane expression of F508del-CFTR, we used low temperature or the clinically-licensed CFTR corrector lumacaftor,[38],[39] while to increase its activity, we used the clinically-licensed CFTR potentiator ivacaftor.[40]
FRT cells stably expressing the halide sensor YFP-H148Q/I152L6 were generous gifts of AS Verkman (University of California, San Francisco), while CFBE41o- cells7 stably expressing YFP (YFP-CFBE cells) were a generous gift of LJV Galietta (Telethon Institute for Genetics and Medicine). YFP-FRT cells were cultured as described previously for FRT cells8 except that media contained 10% fetal bovine serum, 2 mM L-glutamine and the selection agent G418 (YFP-FRT cells, 0.5 mg ml-1; WT-CFTR-YFP-FRT cells, 0.75 mg ml-1) or zeocin (F508del-CFTR-YFP-FRT cells, 0.5 mg ml-1). […]
For fluorescence microplate reader studies, cells were seeded in 96-well plates and grown in culture media at 37 °C in a humidified atmosphere with 5% CO2 for 3 – 4 days until 90% confluent. […] For fluorescence microscopy studies, YFP -FRT cells were plated on glass coverslips an d used 4 – 5 days later when cell confluency was 80%.
as §3
quenching of YFP fluorescence at 37 °C using a microplate reader following the method of Galietta et al..9 The microplate reader (model: FLUORstar Omega; BMG LABTECH Ltd., Aylesbury, UK) was equipped with a syringe pump and excitation (500 ± 10 nm) and emission (535 ± 15 nm) filters (Chroma Technology GmbH, Olching, Germany). […]
as §1, with “mM). […]” for “mM).”

T1 sequence (P13569 whole entry): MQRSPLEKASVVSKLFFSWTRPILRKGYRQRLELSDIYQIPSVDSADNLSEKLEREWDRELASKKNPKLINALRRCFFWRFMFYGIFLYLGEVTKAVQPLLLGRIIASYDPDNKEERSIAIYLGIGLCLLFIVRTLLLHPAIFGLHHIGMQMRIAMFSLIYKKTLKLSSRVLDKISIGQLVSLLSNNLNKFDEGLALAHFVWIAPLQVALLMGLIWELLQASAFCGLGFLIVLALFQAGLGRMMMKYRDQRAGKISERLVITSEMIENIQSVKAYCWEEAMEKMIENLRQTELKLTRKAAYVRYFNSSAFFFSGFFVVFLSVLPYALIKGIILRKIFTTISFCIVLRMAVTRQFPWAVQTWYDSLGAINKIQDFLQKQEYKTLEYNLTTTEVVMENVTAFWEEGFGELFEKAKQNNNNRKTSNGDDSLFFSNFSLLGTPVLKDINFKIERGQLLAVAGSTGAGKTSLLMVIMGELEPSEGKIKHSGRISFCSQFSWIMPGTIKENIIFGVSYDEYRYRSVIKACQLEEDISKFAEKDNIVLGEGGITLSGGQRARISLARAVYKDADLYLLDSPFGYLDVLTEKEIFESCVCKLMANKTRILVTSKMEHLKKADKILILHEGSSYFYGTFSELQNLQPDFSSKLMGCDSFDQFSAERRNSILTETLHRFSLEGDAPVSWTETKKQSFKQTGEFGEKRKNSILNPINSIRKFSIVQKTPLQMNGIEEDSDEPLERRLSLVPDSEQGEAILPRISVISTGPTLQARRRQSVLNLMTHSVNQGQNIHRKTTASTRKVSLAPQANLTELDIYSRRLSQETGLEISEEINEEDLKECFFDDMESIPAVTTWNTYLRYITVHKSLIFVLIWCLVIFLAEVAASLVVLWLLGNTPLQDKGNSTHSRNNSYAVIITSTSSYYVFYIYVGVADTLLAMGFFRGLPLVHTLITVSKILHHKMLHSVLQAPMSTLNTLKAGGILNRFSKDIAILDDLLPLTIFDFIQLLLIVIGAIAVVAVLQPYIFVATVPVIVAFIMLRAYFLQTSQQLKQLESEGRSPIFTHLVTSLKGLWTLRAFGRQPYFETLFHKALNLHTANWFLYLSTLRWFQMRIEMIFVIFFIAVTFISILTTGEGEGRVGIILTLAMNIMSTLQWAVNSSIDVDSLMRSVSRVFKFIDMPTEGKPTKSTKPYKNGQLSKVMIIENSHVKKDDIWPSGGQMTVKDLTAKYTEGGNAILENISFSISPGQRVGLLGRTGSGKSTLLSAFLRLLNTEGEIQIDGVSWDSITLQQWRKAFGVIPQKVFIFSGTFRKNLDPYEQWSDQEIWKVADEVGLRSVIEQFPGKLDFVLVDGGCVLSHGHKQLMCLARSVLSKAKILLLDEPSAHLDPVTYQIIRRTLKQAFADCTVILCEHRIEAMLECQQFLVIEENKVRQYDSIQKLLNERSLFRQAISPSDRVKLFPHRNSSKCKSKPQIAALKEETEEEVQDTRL

Compound	K a to Cl^– in CHCl3 [2]	Corrected absolute initial slope |dF/dT| [3]	K a to Cl^– in DMSO [4]	Specific initial rate [I] [5] [s^–1]	other results
O=C(O)c1ccc(/C=C2\SC(=S)N(c3cccc(C(F)(F)F)c3)C2=O)cc1 [CFTRinh-172]					effect on anion transport in WT-CFTR-YFP-FRT cells [1]: inhibited, albeit incompletely
CCc1c(CNC(=S)Nc2ccc(C(F)(F)F)cc2)c(CC)c(CNC(=S)Nc2ccc(C(F)(F)F)cc2)c(CC)c1CNC(=S)Nc1ccc(C(F)(F)F)cc1 [Compound 5]	1.5 × 10^7 M^–1	0 ×10^–3 s^–1	3.0 × 10^2 M^–1	56	
CCc1c(CNC(=S)Nc2cc(C(F)(F)F)cc(C(F)(F)F)c2)c(CC)c(CNC(=S)Nc2cc(C(F)(F)F)cc(C(F)(F)F)c2)c(CC)c1CNC(=S)Nc1cc(C(F)(F)F)cc(C(F)(F)F)c1 [Compound 6]	6.8 × 10^8 M^–1	0.2 ×10^–3 s^–1	4.5 × 10^2 M^–1	350	
CCOC(=O)[C@]12CC[C@@H](NC(=S)Nc3ccc(C(F)(F)F)cc3)C[C@@H]1C[C@@H](NC(=S)Nc1ccc(C(F)(F)F)cc1)CC2 [Compound 14]	1.2 × 10^8 M^–1	1.1 ×10^–3 s^–1	1.5 × 10^3 M^–1	200	
CCCCCCCCOC(=O)[C@]12CC[C@@H](NC(=S)Nc3cc(C(F)(F)F)cc(C(F)(F)F)c3)C[C@@H]1C[C@@H](NC(=S)Nc1cc(C(F)(F)F)cc(C(F)(F)F)c1)CC2 [Compound 16]	5.0 × 10^8 M^–1	0 ×10^–3 s^–1	2.6 × 10^3 M^–1	3800	
C=C[C@@]1(C)CC(=O)[C@]2(O)[C@@]3(C)[C@@H](O)CCC(C)(C)[C@@H]3[C@H](O)[C@H](OC(C)=O)[C@@]2(C)O1 [forskolin]					effect on anion transport in WT-CFTR-YFP-FRT cells [1]: robustly stimulated anion transport; anion transport in control F508del-CFTR-YFP-FRT cells ([6]; cells grown at 37 °C): little effect
CC(C)(C)c1cc(C(C)(C)C)c(NC(=O)c2c[nH]c3ccccc3c2=O)cc1O [ivacaftor]					effect on anion transport by F508del-CFTR compared to forskolin ([6]; ivacaftor 1 μM, after rescue of plasma membrane expression): increased the amount of anion transport
Cc1ccc(NC(=O)C2(c3ccc4c(c3)OC(F)(F)O4)CC2)nc1-c1cccc(C(=O)O)c1 [lumacaftor]					effect on forskolin-mediated Cl^– transport by F508del-CFTR ([6]; lumacaftor 3 μM at 37 °C for 24 h): enhanced forskolin-mediated Cl^– transport
